Experimental findings from patent publication US6228363A, “Peptides for the treatment of systemic lupus erythematosus” (Hadasit Medical Research Services & Development Company Ltd., priority 1997, dated 2001) are described below.

Test [1] concerns C72 murine anti-DNA antibody. Kind of test: Competitive inhibition of C72 binding to 5200, ELISA. As to conditions: antibody incubated with inhibitor before ELISA. The procedure:
Competitive Inhibition Assays:
In competitive inhibition assays, the antibodies were incubated with various concentrations of the inhibitor (for example: peptide, DNA, heparin) or with DNase for 45 minutes at room temperature and the remaining binding was then evaluated by ELISA as described heretofore.
% inhibition was computed as
O.D. binding without inhibitor-O.D. binding with inhibitor×100=%
inhibition O.D. binding without inhibitor
The binding of C72 to 5200 was tested before and after incubation with 5200, R38, R18, Heparin, DNA and DNase. […] The percent inhibition is the percent reduction of the O.D. after incubation with the inhibiting agent.

Test [2] deals with murine urinary immunoglobulins. Briefly: Binding of murine urinary immunoglobulins, direct binding ELISA. Details: species or system mice. The conditions noted are these: pooled urine. Here is the method: (§1) Wells were coated with 10 μg/ml of the peptides, blocked with 1% BSA (bovine serum albumin) in PBS (pH 7,4), reacted with appropriately diluted serum or urine samples or monoclonal antibodies, incubated with anti-human or anti-mouse immunoglobulin enzyme conjugated to alkaline phosphatase and detected by addition of substrate (Sigma 100 Phosphatase Substrate Tablets) and color development using an Organon Teknika Microwell System spectrometer at wavelength of 405 nm.
Thus, pooled urine from at least 5 mice (either MRL/1pr/1pr or control mice, e.g. BALB/c) was added to wells coated with R38' (5200), R18 or DNA as described above and bound 5200 assayed by ELISA.
Binding of Murine Urinary Immunoglobulins To 5200
Each group is comprised of pooled urine.
A general note: An ELISA detects its analyte on a solid surface through an enzyme-linked reagent.

Test [3] concerns C72 murine anti-DNA antibody. Kind of test: Direct binding ELISA of C72 to laminin peptides. The conditions noted are these: for binding of C72 murine anti-DNA antibody to peptide (FIG. 1): C72 conditioned medium in various dilutions in PBS; for C72 Binding: O.D. in a direct binding ELISA test after one (1) hour. Here is the method: The C72 murine anti-DNA antibody has been derived from (NZBxNZW)F1 lupus mice by the hybridoma technique as described in Eilat D. et al J. Immunol. (1991) 147 361-368. The monoclonal anti-DNA antibodies DIL6 and B3 were derived from lupus patients by hybridoma technique as described in Ehrenstein M. R. et al J. Clin. Invest. (1994) 93 1787-1799 and Ehrenstein M. R. et al Kidney Inter. (1995) 48 705-711.
Anti-Peptide (Direct Binding) ELISA:
as §1
The interaction of the C72 murine anti-DNA antibody with laminin peptides was analyzed by ELISA as described above. The C72 conditioned medium was diluted in PBS in various dilutions.
The peptides of the present invention were tested for their ability to bind directly with C72 murine anti-DNA antibodies and B3 human anti-DNA antibodies according to the methods described hereinabove.

In the case of DNA [reference compound], the “inhibition of the binding of C72 to 5200 (FIG. 2)” value (“inhibition of the binding of C72” for short) in test [1] is “inhibition”. Moreover, the “Binding of murine urinary immunoglobulins to antigen” value (shortened to “Binding … to antigen”) in test [2] (BALB/c mice) and in test [2] (MRL/lpr/lpr mice) was “U.D” throughout.

DNase: the “inhibition of the binding of C72” value in test [1] was “not”.

Regarding “KONCLSSRASFRGCVRNLRLSR (PHTHSTSADTNDPIYVGGYPAH; UniProt P19137 3011-3032, looked up, fragment) [Peptide R30, mouse laminin α chain residues 3011-3032]”, in test [3], the “binding of C72 murine anti-DNA antibody to peptide (FIG. 1)” value is recorded as “binding” and the “C72 Binding” value was 0.75 O.D.

With “RPVRHAQCRVCDGNSTNPRERH [Peptide R18, peptide from the N-terminal of mouse laminin α chain, residues 42-63]”, in test [3], the “binding of C72 murine anti-DNA antibody to peptide (FIG. 1)” value is “not” and the “C72 Binding” value is given as 0.01 O.D. In addition, the “Binding … to antigen” value in test [2] (BALB/c mice) is reported as “U.D”. Also, in test [2] (MRL/lpr/lpr mice), the “Binding … to antigen” value is given as “U.D”.

Turning to heparin, the “inhibition of the binding of C72” value in test [1] is on record as “inhibition”.
